Measured values reported in patent US20230092846A1, “COMBINATION FOR THE TREATMENT OF CANCER AND APPLICATION THEREOF” (EVERFRONT BIOTECH INC., priority 2020, published 2023).
≈ marks a conversion by molar mass, not a printed value. Where two headings read alike, the source gives them in different places.

What was measured:
[1] = system: PANC-1 cells; experiment: MTT cell viability analysis, single agents, PANC-1; type: cell-based, human
Protocol: (§1) In this example, the effects of the compound of the present invention and different anticancer medicaments on killing cancer cells were studied by MTT (Thiazolyl Blue tetrazolium bromide, 3-[4,5-dimethylthiahiazo-2-yl]-[…] bromide) cell viability analysis.
(§2) Thereafter, each of the aforesaid cell lines was cultured with cell medium containing gemcitabine, cisplatin, 5-fluorouracil, irinotecan, oxaliplatin, paclitaxel, (Z)-n-butylidenephthalide, (E)-n-butylidenephthalide, 2-pentanolybenzoic acid, sodium 2-pentanoylbenzoate, and butylphthalide, for 24 hours, 48 hours and 72 hours, respectively.

[2] = system: Mia-PaCa2 cells; experiment: MTT cell viability analysis, single agents, Mia-PaCa2; type: cell-based, human
Protocol: as §1, §2

[3] = system: AsPC-1 cells; experiment: MTT cell viability analysis, single agents, AsPC-1; type: cell-based, human
Protocol: as §1, §2

[4] = system: Panc02 cells; experiment: MTT cell viability analysis, single agents, Panc02; type: cell-based, mouse
Protocol: as §1, §2

[5] = system: A549 cell; experiment: MTT cell viability analysis, single agents, A549; type: cell-based; settings: cultured 24, 48 and 72 hours (time of IC50 not given)
Protocol: as §1
(§3) Thereafter, each of the aforesaid cell lines were cultured with cell medium containing 5-fluorouracil, (Z)-n-butylidenephthalide, and 2-pentanolybenzoic acid for 24 hours, 48 hours and 72 hours.

[6] = system: HepG2 cell; experiment: MTT cell viability analysis, single agents, HepG2; type: cell-based; settings: cultured 24, 48 and 72 hours (time of IC50 not given)
Protocol: as §1, §3

[7] = system: HT-29 cell; experiment: MTT cell viability analysis, single agents, HT-29; type: cell-based; settings: cultured 24, 48 and 72 hours (time of IC50 not given)
Protocol: as §1, §3

[8] = system: DBTRG-05MG cell; experiment: MTT cell viability analysis, single agents, DBTRG-05MG; type: cell-based; settings: cultured 24, 48 and 72 hours (time of IC50 not given)
Protocol: as §1, §3

[9] = system: CD44ICD protein; experiment: Western Blotting of treated Panc02 cells, CD44ICD; type: cell-based, mouse; settings: FIG. 1
Protocol: (§4) The Panc02 cells (pancreatic cancer cell line) were cultured with 37.5 and 75 μg/ml of (Z)-n-butylidenephthalide for 6 hours (a portion of cells were harvested after culturing for 3 hours), respectively. Thereafter, proteins of the cells were extracted, and the expressions of CD44 intracellular domain (CD44ICD) protein and PD-L1 protein in the cancer cells treated with (Z)-n-butylidenephthalide were measured by Western Blotting. Furthermore, the expression of GAPDH protein was measured as an internal control.

[10] = system: PD-L1 protein; experiment: Western Blotting of treated Panc02 cells, PD-L1; type: cell-based, mouse; settings: 37.5 and 75 μg/ml, 3 and 6 hours, FIG. 1
Protocol: as §4

[11] = system: Panc02 cells pancreatic tumor; experiment: Survival of mice with orthotopic Panc02 pancreatic cancer; type: in vivo, C57BL/6J mouse; settings: for Fold (as compared to Ctl. group): survival
Protocol: (§5) According to the requirements of Institutional Animal Care and Use Committee (IACUC) of Dong Hwa University, C57BL/6J mice were feed in the experimental animal center of Dong Hwa University until 8 to 10 weeks old. Then, the stably constructed Panc02 cells transfected by Luc-eGFP were in-situ injected into the mice pancreases (1×10^6 cells/0.02 ml/mouse). Thereafter, the tumor sizes of mice pancreases were analyzed through the animal imaging results, and the mice were equally divided into nine group depending on their tumor sizes and treated by the following conditions for three to four weeks:
(1) “Control (Ctl.)” group (5 mice): untreated, only orally administering vehicle (containing none of the compound of the present invention and other anticancer medicaments) every day.
(2) “LD” group (5 mice): orally administering a low dose (12.5 mg/kg body weight) of (Z)-n-butylidenephthalide every day.
(3) “HD” group (5 mice): orally administering a high dose (25 mg/kg body weight) of (Z)-n-butylidenephthalide every day.
(4) “Gem” group (5 mice): intraperitoneally injecting 100 mg/kg body weight of gemcitabine (GEM) per three days.
(5) “LD+Gem” group (5 mice): orally administering 12.5 mg/kg body weight of (Z)-n-butylidenephthalide every day, and intraperitoneally injecting 50 mg/kg body weight of gemcitabine (GEM) per three days.
(6) “TS-1” group (5 mice): after orally administering 100 mg/kg body weight of TS-1 every day for five continuous days, stopping the oral administration of TS-1 for two days.
According to the method of Example 4-1, the pancreatic cancer mice were established and the survivals of mice in each group were observed and recorded every day. The results are shown in Table 15 and FIG. 5A to FIG. 5D.

[12] = system: Panc02 cells pancreatic tumor; experiment: Orthotopic Panc02 pancreatic tumor, tumor size by T2-weighted MRI; type: in vivo, C57BL/6J mouse; settings: fifteenth day, 14 days of treatment; group regimens; FIG. 3
Protocol: as §5
(1) “Control (Ctl.)” group (5 mice): untreated, only orally administering vehicle (containing none of the compound of the present invention and other anticancer medicaments) every day. […]
The stably constructed Panc02 cells transfected by Luc-eGFP were in-situ injected into the mice of each group of Example 4-1, and after determining the growth of in-situ pancreatic tumor, the medicament treatments were conducted for 14 days (i.e., the fifteenth day). In this duration, the pancreatic tumors of mice in each group were analyzed and observed by T2-weighted MRI and taken pictures for records. The tumor (a portion circled by a dotted line) sizes of mice of each group in FIG. 2 were analyzed by amide software.

[13] = system: PD-1 protein; experiment: Western Blotting of pancreatic tumor tissue, PD-1; type: in vivo, C57BL/6J mouse; settings: FIG. 6, group regimens
Protocol: as §5
(§6) After accomplishing the observations of Examples 4-2 to 4-3, the mice in each group were sacrificed and the tissues of pancreatic tumor thereof were collected to extracting proteins. Then, the expressions of CD44 protein, CD44ICD protein, PD-1 protein, PD-L1 protein, p-Akt protein, and Akt protein in the protein sample of each group were detected by Western Blotting. Furthermore, the expression of GAPDH protein serves as an internal control.

[14] = system: PD-L1 protein; experiment: Western Blotting of pancreatic tumor tissue, PD-L1; type: in vivo, C57BL/6J mouse; settings: FIG. 6, group regimens
Protocol: as §5, §6

[15] = MTT, cultured 24, 48 and 72 hours (time of IC50 not given)
[16] = Mia-PaCa2, MTT, cultured 24, 48 and 72 hours (time of IC50 not given)
[17] = AsPC-1, MTT, cultured 24, 48 and 72 hours (time of IC50 not given)
[18] = Homo sapiens, MTT, cultured 24, 48 and 72 hours (time of IC50 not given), read-out: IC50
[19] = Homo sapiens, MIA PaCa-2, Mia-PaCa2, MTT, cultured 24, 48 and 72 hours (time of IC50 not given), read-out: IC50
[20] = Homo sapiens, ASPC1, AsPC-1, MTT, cultured 24, 48 and 72 hours (time of IC50 not given), read-out: IC50
[21] = Mus musculus, MTT, cultured 24, 48 and 72 hours (time of IC50 not given), read-out: IC50
[22] = HD group: 25 mg/kg orally every day
[23] = LD group: 12.5 mg/kg orally every day
[24] = Gem group: 100 mg/kg intraperitoneally per three days

## 2-pentanolybenzoic acid
[1]; [15]
  IC50: 980.5 ± 22.64 µg/mL
[2]; [16]
  IC50: 693.5 ± 19.57 µg/mL
[3]; [17]
  IC50: 490.2 ± 19.69 µg/mL
[4]; [15]
  IC50: 769.9 ± 15.13 µg/mL
[5]
  IC50: 795.5 ± 0.02 µg/mL
[6]
  IC50: 1141.5 ± 0.01 µg/mL
[7]
  IC50: 443.8 ± 0.04 µg/mL
[8]
  IC50: 392.8 ± 0.01 µg/mL

## O=c1[nH]cc(F)c(=O)[nH]1 [5-fluorouracil, reference compound]
[1]; [18]
  IC50: 8.45 ± 0.35 µg/mL (≈ 65 µM)
[2]; [19]
  IC50: 4.9 ± 0.27 µg/mL (≈ 37.7 µM)
[3]; [20]
  IC50: 25.4 ± 3.91 µg/mL (≈ 195 µM)
[4]; [21]
  IC50: 0.0673 µg/mL (≈ 0.517 µM)
[5]; Homo sapiens, read-out: IC50
  IC50: 8.55 ± 0.22 µg/mL (≈ 65.7 µM)
[6]; Homo sapiens, read-out: IC50
  IC50: 4.44 ± 0.25 µg/mL (≈ 34.1 µM)
[7]; Homo sapiens, read-out: IC50
  IC50: 20.8 ± 0.91 µg/mL (≈ 160 µM)
[8]; Homo sapiens, read-out: IC50
  IC50: 55.5 ± 6.1 µg/mL (≈ 426 µM)

## CCC/C=C1/OC(=O)c2ccccc21 [(E)-n-butylidenephthalide]
[1]; Homo sapiens
  IC50: 779 ± 26.9 µg/mL (≈ 4140 µM)
[2]; Homo sapiens, MIA PaCa-2
  IC50: 629 ± 16.5 µg/mL (≈ 3340 µM)
[3]; Homo sapiens, ASPC1
  IC50: 131 ± 43.3 µg/mL (≈ 697 µM)
[4]; Mus musculus
  IC50: 514 ± 9.21 µg/mL (≈ 2730 µM)

## CCC/C=C1\OC(=O)c2ccccc21 [(Z)-n-butylidenephthalide]
[1]; Homo sapiens
  IC50: 41.2 ± 2.81 µg/mL (≈ 219 µM)
[2]; Homo sapiens, MIA PaCa-2
  IC50: 55.9 ± 1.35 µg/mL (≈ 297 µM)
[3]; Homo sapiens, ASPC1
  IC50: 83.3 ± 2.56 µg/mL (≈ 443 µM)
[4]; Mus musculus
  IC50: 32.9 ± 2.33 µg/mL (≈ 175 µM)
[5]; Homo sapiens, read-out: IC50
  IC50: 63.6 ± 0.06 µg/mL (≈ 338 µM)
[6]; Homo sapiens, read-out: IC50
  IC50: 81.1 ± 0.02 µg/mL (≈ 431 µM)
[7]; Homo sapiens, read-out: IC50
  IC50: 52.9 ± 0.01 µg/mL (≈ 281 µM)
[8]; Homo sapiens, read-out: IC50
  IC50: 133 µg/mL (≈ 704 µM)
[9]; 37.5 and 75 μg/ml, 3 and 6 hours
  expression of CD44ICD protein: decreased as the concentration of (Z)-n-butylidenephthalide was increased
[9]; 6 hours
  expression of CD44ICD protein at 6 hours: completely inhibited
[10]
  expression of PD-L1 protein: decreased as the concentration of (Z)-n-butylidenephthalide was increased
[11]; [22]
  Average of overall survival: 27.2 ± 0.533 days
  Median of overall survival: 27 days
  Fold (as compared to Ctl. group): 1.6
[11]; [23]
  Average of overall survival: 30.6 ± 2.205 days
  Median of overall survival: 30 days
  survival days compared to Control group and TS-1 group: more than that of “Control” group
  Fold (as compared to Ctl. group): 1.8

## CCCCC1OC(=O)c2ccccc21 (centres unmarked) [butylphthalide, Butylphthalide]
[1]; [15]
  IC50: >200 µg/mL
[2]; [16]
  IC50: 198.9 ± 7.69 µg/mL (≈ 1050 µM)
[3]; [17]
  IC50: >300 µg/mL

## N.N.[Cl][Pt][Cl] [cisplatin, Cisplatin]
[1]; [15]
  IC50: 35.87 ± 1.23 µg/mL
[2]; [16]
  IC50: 32.86 ± 1.08 µg/mL
[3]; [17]
  IC50: 21.56 ± 1.05 µg/mL
[4]; [15]
  IC50: 53.36 ± 1.74 µg/mL

## Nc1ccn([C@@H]2O[C@H](CO)[C@@H](O)C2(F)F)c(=O)n1 [gemcitabine, Gemcitabine]
[1]; [18]
  IC50: 1.53 ± 0.3 µg/mL (≈ 5.81 µM)
[2]; [19]
  IC50: 0.85 ± 0.36 µg/mL (≈ 3.23 µM)
[3]; [20]
  IC50: 6.56 ± 0.82 µg/mL (≈ 24.9 µM)
[4]; [21]
  IC50: 0.00377 µg/mL (≈ 0.0143 µM)
[12]
  tumor size (T2-weighted MRI): bigger than that of untreated “Control” group
[11]; [24]
  Average of overall survival: 31.7 ± 1.023 days
  Median of overall survival: 30 days
  Fold (as compared to Ctl. group): 1.8
[13]
  expression of PD-1 protein in pancreatic tumor tissue: more than that of the untreated “Control” group
[14]
  expression of PD-L1 protein in pancreatic tumor tissue: more than that of the untreated “Control” group

## CCc1c2c(nc3ccc(OC(=O)N4CCC(N5CCCCC5)CC4)cc13)-c1cc3c(c(=O)n1C2)COC(=O)[C@]3(O)CC [irinotecan, Irinotecan]
[1]; [18]
  IC50: 38.5 ± 1.08 µg/mL (≈ 65.5 µM)
[2]; [19]
  IC50: 21.7 ± 0.82 µg/mL (≈ 36.9 µM)
[3]; [20]
  IC50: 54.4 ± 2.13 µg/mL (≈ 92.7 µM)
[4]; [21]
  IC50: 69.5 ± 1.01 µg/mL (≈ 118 µM)

## O=C1[O][Pt]2([NH][C@@H]3CCCC[C@H]3[NH]2)[O]C1=O [oxaliplatin, Oxaliplatin]
[1]; [15]
  IC50: 18.79 ± 1.35 µg/mL
[2]; [16]
  IC50: 21.81 ± 1.60 µg/mL
[3]; [17]
  IC50: 42.60 ± 7.61 µg/mL
[4]; [15]
  IC50: 8.43 ± 0.83 µg/mL

## CC(=O)O[C@H]1C(=O)[C@@]2(C)[C@H]([C@H](OC(=O)c3ccccc3)[C@]3(O)C[C@H](OC(=O)[C@H](O)[C@@H](NC(=O)c4ccccc4)c4ccccc4)C(C)=C1C3(C)C)[C@]1(OC(C)=O)CO[C@@H]1C[C@@H]2O [paclitaxel, Paclitaxel]
[1]; [18]
  IC50: 0.0196 µg/mL (≈ 0.023 µM)
[2]; [19]
  IC50: 0.00458 µg/mL (≈ 0.00536 µM)
[3]; [20]
  IC50: 0.058 µg/mL (≈ 0.0679 µM)
[4]; [21]
  IC50: 0.0124 µg/mL (≈ 0.0146 µM)

## CCCCC(=O)c1ccccc1C(=O)[O-].[Na+] [sodium 2-pentanoylbenzoate, Sodium 2-pentanoylbenzoate]
[1]; [18]
  IC50: 687 ± 27.1 µg/mL
[2]; [19]
  IC50: 469 ± 18.6 µg/mL
[3]; [20]
  IC50: 624 ± 49.6 µg/mL
[4]; [21]
  IC50: 750 ± 28.7 µg/mL
